Converted amounts (≈) assume the structure as drawn.
How the values were obtained:
Format in all cases: functional, organism-based
Fulvia fulva [1] = assay: Antifungal activity against Passalora fulva incubated as 10% EC formulation
Alternaria solani [2] = assay: Antifungal activity against Alternaria solani incubated as 10% EC formulation
Botrytis cinerea [3] = assay: Antifungal activity against Botryotinia fuckeliana incubated as 10% EC formulation
Alternaria solani [4] = assay: Antifungal activity against Alternaria solani incubated as 50% WP formulation
Botrytis cinerea [5] = assay: Antifungal activity against Botryotinia fuckeliana incubated as 50% WP formulation
Fulvia fulva [6] = assay: Antifungal activity against Passalora fulva incubated as 50% WP formulation

C=CCc1ccccc1O [2-ALLYLPHENOL]
EC50 (Fulvia fulva [1]): 52.2 µg/mL (≈ 389 µM) | EC50 (Alternaria solani [2]): 31.3 µg/mL (≈ 233 µM) | EC50 (Botrytis cinerea [3]): 21.7 µg/mL (≈ 162 µM)

CC(C)NC(=O)N1CC(=O)N(c2cc(Cl)cc(Cl)c2)C1=O [IPRODIONE]
EC50 (Alternaria solani [4]): 56 µg/mL (≈ 169 µM) | EC50 (Botrytis cinerea [5]): 58.6 µg/mL (≈ 177 µM) | EC50 (Fulvia fulva [6]): 48.9 µg/mL (≈ 148 µM)

Reference: ChEMBL document CHEMBL3045470, “Effect of 2-allylphenol against Botrytis cinerea Pers., and its residue in tomato fruit” (Crop Prot, 2007)
